Experimental findings from US20090054471A1, “PYRIDOPYRAZOLOPYRIMIDINE COMPOUNDS AND THEIR USES AS ANTI-CANCER AND ANTI-DIABETE DRUGS” (Smithkline Beecham Corporation, priority 2005, published 2009) are described below.

Common to all, as to type: biochemical
One experiment has as its target T1, Human GSK3b (Homo sapiens, UniProt P49841).
T1 construct: 6-His (N); made in house; host or cells: E. coli
Kind of experiment: GSK3b kinase scintillation proximity assay. Conditions: 2.5 uM ATP, 11-point dose-response 0.0001 to 10 μM; read-out: GSK3. As to the method: Human GSK3b was expressed in E. coli with a 6-His tag at the N-terminus. The protein was purified using metal-chelate affinity chromatography. The incorporation of radioactive phosphate into a biotinylated synthetic peptide, Biotin-Ahx-[…](PO3)YR-amide was detected using a scintillation proximity assay (SPA) method as described above. Assay conditions were as follows: 100 mM HEPES, pH 7.2, 10 mM MgCl2, 0.3 mg/mL heparin sulfate, 0.1 mg/mL BSA, 1 mM DTT, 2.5 uM ATP, 0.6 uCi/rxn ^33P-ATP, 1.2 ug/mL GSK-3b protein. The plates are incubated at room temperature for 19 minutes prior to the addition of SPA stop solution.
(§1) Data Calculations—Peptide substrate phosphorylation reactions were performed as described above. The example compound indicated was serially diluted 1 to 3 and added to the reactions to produce an 11-point dose-response curve ranging from 0.0001 to 10 μM.
Background: In a scintillation proximity assay essentially only radioactivity close to the scintillant gives light.

The target in experiment [1] is T2, vascular endothelial growth factor receptor 2 (VEGFR2) (Homo sapiens, UniProt P35968).
T2 construct: The catalytic domains of vascular endothelial growth factor receptor 2 (VEGFR2) was expressed and purified; made in house
Kind of experiment: VEGFR2 kinase assay (homogeneous time-resolved fluorescence). Conditions: 75 μM ATP, 11-point dose-response 0.0001 to 10 μM; read-out: VEGF-R. As to the method: The catalytic domains of vascular endothelial growth factor receptor 2 (VEGFR2) was expressed and purified using methods similar to those described for ErbB-2 and EGFR. Kinase assays were performed as described above with the following modifications: VEGFR2 assays contained 10 nM enzyme, 100 mM HEPES, pH 7.5, 0.1 mg/ml bovine serum albumin, 0.1 mM dithiothreitol, 360 nM peptide A, 75 μM ATP, and 5 mM MgCl2. The reaction was allowed to proceed for 40 min. Product was detected using a homogeneous time-resolved fluorescence procedure (Park, Y.-W., Cummings, R. T., Wu, L., Zheng, S., Cameron, P. M., Woods, A., Zaller, D. M., Marcy, A. I., and Hermes, J. D. (1999) Anal. Biochem. 269, 94-104). Briefly, the reactions were quenched by adding 100 μl of 100 mM HEPES, pH 7.5, 100 mM EDTA, 45 nM streptavidin-linked allophycocyanin (Molecular Probes, Eugene, Oreg.), and 3 nM europium-conjugated anti-phosphotyrosine antibody (Wallac, Turku, Finland). The product was detected using a Victor plate reader (Wallac, Turku, Finland) with a time delay at 665 nm.
as §1

The next experiment deals with T3, ErbB-2 (Homo sapiens, UniProt P04626).
T3 construct: made in house; host or cells: baculovirus expression system (insect cells)
Kind of experiment: ErbB-2 protein tyrosine kinase substrate phosphorylation assay (SPA). Conditions: 10 μM ATP, 11-point dose-response 0.0001 to 10 μM; read-out: ErbB2. On the procedure: (§2) Compounds of the present invention were tested for EGFR or ErbB-2 protein tyrosine kinase inhibitory activity in substrate phosphorylation assays using enzymes purified from a baculovirus expression system.
(§3) The method measures the ability of the isolated enzyme to catalyse the transfer of the γ-phosphate from ATP onto tyrosine residues in a biotinylated synthetic peptide (biotin-Ahx-[…]-amide). Reactions were performed in 96 or 384 well polystyrene plates in a final volume of 20 or 45 μl. […] ATP per reaction, 2 μM peptide substrate, and 1 mM dithiothreitol. Reactions were initiated by adding 1 pmol (20 nM) per reaction of the indicated enzyme.
as §1

A further experiment has as its target T4, EGFR (Homo sapiens, UniProt P00533).
T4 construct: made in house; host or cells: baculovirus expression system (insect cells)
Kind of experiment: EGFR protein tyrosine kinase substrate phosphorylation assay (SPA). Conditions: 10 μM ATP, 11-point dose-response 0.0001 to 10 μM. As to the method:
as §2, §3, §1

T4 sequence (P00533 669-1210 limits assumed): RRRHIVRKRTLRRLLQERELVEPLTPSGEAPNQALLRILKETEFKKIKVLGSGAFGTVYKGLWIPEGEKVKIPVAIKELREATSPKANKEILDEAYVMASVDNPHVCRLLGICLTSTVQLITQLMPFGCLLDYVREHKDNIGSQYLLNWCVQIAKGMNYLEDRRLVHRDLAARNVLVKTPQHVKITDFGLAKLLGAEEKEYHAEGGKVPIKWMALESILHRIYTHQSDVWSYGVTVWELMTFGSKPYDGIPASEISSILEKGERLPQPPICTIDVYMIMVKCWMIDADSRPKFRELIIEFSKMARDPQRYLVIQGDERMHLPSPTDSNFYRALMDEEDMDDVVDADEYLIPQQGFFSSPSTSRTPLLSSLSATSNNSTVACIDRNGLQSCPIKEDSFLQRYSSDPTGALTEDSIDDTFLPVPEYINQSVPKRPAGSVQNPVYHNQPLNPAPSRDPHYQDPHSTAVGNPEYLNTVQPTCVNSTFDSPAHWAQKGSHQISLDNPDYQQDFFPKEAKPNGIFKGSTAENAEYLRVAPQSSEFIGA
T1 sequence (P49841 whole entry): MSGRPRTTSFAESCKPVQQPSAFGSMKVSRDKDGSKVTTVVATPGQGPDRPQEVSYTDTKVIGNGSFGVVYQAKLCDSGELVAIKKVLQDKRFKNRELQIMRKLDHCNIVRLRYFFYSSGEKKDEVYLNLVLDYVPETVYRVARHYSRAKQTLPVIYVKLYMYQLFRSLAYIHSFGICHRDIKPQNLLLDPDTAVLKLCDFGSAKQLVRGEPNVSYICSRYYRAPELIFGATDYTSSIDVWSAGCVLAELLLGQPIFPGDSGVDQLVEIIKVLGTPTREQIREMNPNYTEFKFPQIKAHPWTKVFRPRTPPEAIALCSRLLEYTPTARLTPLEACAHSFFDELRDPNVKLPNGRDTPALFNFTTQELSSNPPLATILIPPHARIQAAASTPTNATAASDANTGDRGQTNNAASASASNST
T2 sequence (P35968 834-1162 limits assumed): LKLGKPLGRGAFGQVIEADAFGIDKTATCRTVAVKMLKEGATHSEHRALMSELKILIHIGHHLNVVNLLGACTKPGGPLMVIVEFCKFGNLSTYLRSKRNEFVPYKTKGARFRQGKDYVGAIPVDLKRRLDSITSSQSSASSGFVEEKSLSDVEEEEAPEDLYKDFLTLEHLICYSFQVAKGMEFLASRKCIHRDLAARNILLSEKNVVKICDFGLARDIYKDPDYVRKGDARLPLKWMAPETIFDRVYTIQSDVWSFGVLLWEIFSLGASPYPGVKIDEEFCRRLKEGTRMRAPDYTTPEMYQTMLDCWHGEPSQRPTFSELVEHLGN
T3 sequence (P04626 676-1255 limits assumed): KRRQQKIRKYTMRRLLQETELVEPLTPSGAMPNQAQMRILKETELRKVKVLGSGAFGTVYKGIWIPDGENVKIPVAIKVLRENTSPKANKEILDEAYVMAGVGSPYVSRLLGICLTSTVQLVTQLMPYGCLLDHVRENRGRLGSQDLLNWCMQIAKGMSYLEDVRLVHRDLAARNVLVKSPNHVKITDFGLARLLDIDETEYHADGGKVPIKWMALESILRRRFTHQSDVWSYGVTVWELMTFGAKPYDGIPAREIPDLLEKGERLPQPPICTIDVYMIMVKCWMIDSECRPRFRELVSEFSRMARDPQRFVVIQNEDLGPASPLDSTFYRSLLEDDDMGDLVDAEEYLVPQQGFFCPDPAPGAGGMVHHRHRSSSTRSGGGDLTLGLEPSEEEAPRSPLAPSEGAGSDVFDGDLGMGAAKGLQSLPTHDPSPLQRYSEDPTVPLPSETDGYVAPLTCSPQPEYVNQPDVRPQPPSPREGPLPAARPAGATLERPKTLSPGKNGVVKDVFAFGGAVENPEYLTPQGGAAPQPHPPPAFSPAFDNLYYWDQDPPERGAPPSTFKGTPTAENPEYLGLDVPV

Consider `Nc1ncnc2nn3ccccc3c12` [Example 1, pyrido[1′,2′:1,5]pyrazolo[3,4-d]pyrimidin-4-amine], for which the IC50 (on Human GSK3b; in experiment [1]; at ErbB-2; against EGFR) was greater than 10 µM throughout.
For `Fc1ccc(Nc2ncnc3nn4ccccc4c23)cc1Cl` [Example 4, N-(3-chloro-4-fluorophenyl)pyrido[1′,2′:1,5]pyrazolo[3,4-d]pyrimidin-4-amine], the IC50 (at Human GSK3b; in experiment [1]) was greater than 10 µM each time.
Take `Fc1cccc(COc2ccc(Nc3ncnc4nn5ccccc5c34)cc2Cl)c1` [Example 5, N-(3-chloro-4-{[(3-fluorophenyl)methyl]oxy}phenyl)-pyrido[1′,2′:1,5]pyrazolo[3,4-d]pyrimidin-4-amine]: the IC50 (at Human GSK3b; in experiment [1]) was greater than 10 µM throughout.
`Clc1cc(Nc2ncnc3nn4ccccc4c23)ccc1OCc1ccccc1` [Example 6, N-{3-chloro-4-[(phenylmethyl)oxy]phenyl}pyrido[1′,2′:1,5]pyrazolo[3,4-d]pyrimidin-4-amine]: the IC50 at Human GSK3b was greater than 10 µM; in experiment [1] it was greater than 10 µM; on ErbB-2 it was 0.1 to 1 µM; against EGFR it was less than 0.1 µM.
In the case of `c1ccc(Cc2nc3ccc(Nc4ncnc5nn6ccccc6c45)cc3[nH]2)cc1` [Example 7, N-[2-(phenylmethyl)-1H-benzimidazol-5-yl]pyrido[1′,2′:1,5]pyrazolo-[3,4-d]pyrimidin-4-amine], the IC50 on Human GSK3b is greater than 10 µM; in experiment [1], greater than 10 µM; at ErbB-2, 1 to 10 µM; at EGFR, 1 to 10 µM.
On to `N#Cc1cccc(NC(=O)Nc2ncnc3nn4ccccc4c23)c1` [Example 8, N-(3-cyanophenyl)-N′-pyrido[1′,2′:1,5]pyrazolo[3,4-d]pyrimidin-4-ylurea], for which the IC50 was 0.1 to 1 µM at Human GSK3b, 0.1 to 1 µM in experiment [1], greater than 10 µM at ErbB-2 and greater than 10 µM at EGFR.
Consider `O=C(Nc1cccc(C(F)(F)F)c1)Nc1ncnc2nn3ccccc3c12` [Example 9, N-pyrido[1′,2′:1,5]pyrazolo[3,4-d]pyrimidin-4-yl-N′-[3-(trifluoromethyl)phenyl]urea], for which the IC50 on Human GSK3b is 0.1 to 1 µM; in experiment [1] it was 0.1 to 1 µM; at ErbB-2, greater than 10 µM; against EGFR it was greater than 10 µM.
On to `O=C(Nc1cccc([N+](=O)[O-])c1)Nc1ncnc2nn3ccccc3c12` [Example 10, N-(3-nitrophenyl)-N′-pyrido[1′,2′:1,5]pyrazolo[3,4-d]pyrimidin-4-ylurea], for which the IC50 on Human GSK3b is 0.1 to 1 µM; in experiment [1] it was greater than 10 µM; at ErbB-2, greater than 10 µM; at EGFR, greater than 10 µM.
Consider `O=C(Nc1ccc(Br)cc1)Nc1ncnc2nn3ccccc3c12` [Example 11, N-(4-bromophenyl)-N′-pyrido[1′,2′:1,5]pyrazolo[3,4-d]pyrimidin-4-ylurea], for which the IC50 was 1 to 10 µM on Human GSK3b, 1 to 10 µM in experiment [1], greater than 10 µM at ErbB-2 and greater than 10 µM against EGFR.
As to `O=C(Nc1ccc(C(F)(F)F)cc1)Nc1ncnc2nn3ccccc3c12` [Example 12, N-pyrido[1′,2′:1,5]pyrazolo[3,4-d]pyrimidin-4-yl-N′-[4-(trifluoromethyl)phenyl]urea], the IC50 on Human GSK3b is 1 to 10 µM; in experiment [1], 1 to 10 µM; at ErbB-2, greater than 10 µM; against EGFR, greater than 10 µM.
Regarding `O=C(Nc1ccc(F)cc1)Nc1ncnc2nn3ccccc3c12` [Example 13, N-(4-fluorophenyl)-N′-pyrido[1′,2′:1,5]pyrazolo[3,4-d]pyrimidin-4-ylurea], the IC50 at Human GSK3b was greater than 10 µM; in experiment [1], 0.1 to 1 µM; on ErbB-2, greater than 10 µM; against EGFR, greater than 10 µM.
As to `C(=NNc1ncnc2nn3ccccc3c12)c1c[nH]c2ccccc12` [Example 14, 1H-indole-3-carbaldehyde pyrido[1′,2′:1,5]pyrazolo[3,4-d]pyrimidin-4-ylhydrazone], the IC50 was 1 to 10 µM on Human GSK3b, greater than 10 µM in experiment [1], greater than 10 µM at ErbB-2 and 1 to 10 µM against EGFR.
